Assay results published in US8580812B2, “Heteroaryl amide analogues as P2X7 antagonists” (H. Lundbeck A/S, priority 2007, dated 2013).

Biological target: T1, P2X7 (Homo sapiens, UniProt Q99572)
T1 construct: host or cells: SH-SY5Y
T1 sequence (Q99572 1-595): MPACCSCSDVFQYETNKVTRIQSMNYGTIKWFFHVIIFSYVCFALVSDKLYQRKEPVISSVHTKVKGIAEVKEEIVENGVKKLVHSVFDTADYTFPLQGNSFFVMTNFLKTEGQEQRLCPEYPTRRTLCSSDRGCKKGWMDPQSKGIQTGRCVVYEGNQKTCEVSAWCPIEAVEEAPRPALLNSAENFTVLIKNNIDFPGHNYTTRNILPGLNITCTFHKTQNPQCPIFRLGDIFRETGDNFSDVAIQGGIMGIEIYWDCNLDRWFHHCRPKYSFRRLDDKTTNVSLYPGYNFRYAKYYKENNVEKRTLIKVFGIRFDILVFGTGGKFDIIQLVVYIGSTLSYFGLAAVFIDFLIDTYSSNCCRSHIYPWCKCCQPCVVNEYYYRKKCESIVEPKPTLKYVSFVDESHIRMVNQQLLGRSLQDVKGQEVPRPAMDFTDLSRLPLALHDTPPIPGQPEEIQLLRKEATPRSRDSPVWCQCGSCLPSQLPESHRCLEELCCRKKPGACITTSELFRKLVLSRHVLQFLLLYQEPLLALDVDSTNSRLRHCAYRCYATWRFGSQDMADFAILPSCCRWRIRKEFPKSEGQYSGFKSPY
Experiment: High Throughput P2X7 Calcium Mobilization Assay (Example 4A), antagonist activity
Format: cell-based
Conditions: SH-SY5Y cells, 50% decrease in fluorescence response of cells exposed to 80 μM BzATP
Protocol: A. High Throughput P2X7 Calcium Mobilization Assay
SH-SY5Y cells, ATCC Number CRL-2266, (American Type Culture Collection, Manassas, Va.) are cultured under DMEM/High medium supplemented with 10% FBS, and 10 mM HEPES (Invitrogen Corp., Carlsbad, Calif.) in 5% CO2 and at 37° C. One day prior to the experiment, cells are plated at a density of 100,000 cells/well in a 96 well black/clear TC plate (Corning® Costar®, Sigma-Aldrich Co., St. Louis, Mo.). At the beginning of the experiment, the culture medium is removed and cells are incubated with 50 μL of 2.3 μM Fluo-4 AM dye (Invitrogen Corp.) in the assay solution (5 mM KCl, 9.6 mM NaH2PO4.H2O, 25 mM HEPES, 280 mM Sucrose, 5 mM Glucose, and 0.5 mM CaCl2; pH is adjusted to 7.4 with NaOH) for an hour at 37° C. After one hour dye incubation, wells are rinsed once with 50 μL assay solution, and are then incubated for an hour at room temperature with 100 μL assay solution containing the test compound. The final concentration of test compound generally ranges from 1 to 2500 nM; for positive control cells, no test compound is added. After the one hour incubation, plates are transferred to a FLIPR^TETRA instrument (Molecular Devices, Sunnyvale, Calif.) for calcium mobilization analysis.
For determination of antagonist activity, 50 μL of P2X7 agonist (2′(3′)-O-(4-benzoyl-benzoyl)adenosine 5′-triphosephate (BzATP; Sigma-Aldrich) in the assay solution is transferred using the FLIPR into the plate, such that the final agonist concentration is 80 μM (about EC50). In negative control cells, 50 μL of assay solution without agonist is added at this stage. The peak fluorescence signal over a 2 minute period is then measured.
First, the average maximum relative fluorescent unit (RFU) response from the negative control wells (no agonist) is subtracted from the maximum response detected for each of the other experimental wells. Second, average maximum RFU response is calculated for the positive control wells (agonist wells). Then, percent inhibition for each compound tested is calculated using the equation: Percent Inhibition=100−100×(Peak Signal in Test Cells/Peak Signal in Control Cells) The % inhibition data is plotted as a function of test compound concentration and test compound IC50 is determined using, for example, KALEIDAGRAPH software (Synergy Software, Reading, Pa.) best fit of the data to the equation: y=m1*(1/(1+(m2/m0)^m3)) where y is the percent inhibition, m0 is […], m1 is the maximum RFU, m2 corresponds to the test compound IC50 (the concentration required to provide a 50% decrease, relative to the response observed in the presence of agonist and without antagonist) and m3 is the Hill coefficient.

IC50, ≤ 2 µM:
CC(C)CC(CNC(=O)c1cccn2nc(C(=O)N(C)CCF)cc12)c1ccc(Cl)cc1 (stereo not shown) [Compound 92, Pyrazolo[1,5-a]pyridine-2,4-dicarboxylic acid 4-{[2-(4-chloro-phenyl)-4-methyl-pentyl]-amide} 2-[(2-fluoro-ethyl)-methyl-amide]]
NC(=O)c1ccc(-c2cc3c(C(=O)NCC45CC6CC(CC(C6)C4)C5)cccn3c2)cc1 [Compound 112, N-(adamantan-1-ylmethyl)-2-(4-carbamoylphenyl) indolizine-8-carboxamide]
O=C(NCC12CC3CC(CC(C3)C1)C2)c1cccn2nc(CN3CCn4cncc4C3)cc12 [Compound 52, N-(adamantan-1-ylmethyl)-2-(5,6-dihydroimidazo[1,5-a]pyrazin-7(8H)-ylmethyl)pyrazolo[1,5-a]pyridine-4-carboxamide]
COCCNC(=O)c1cc2c(C(=O)NCC34CC5CC(CC(C5)C3)C4)cccn2n1 [Compound 42, 4-N-(adamantan-1-ylmethyl)-2-N-(2-methoxyethyl)pyrazolo [1,5-a]pyridine-2,4-dicarboxamide]
CC(C)CC(CNC(=O)c1cccn2nc(C(=O)N(C)CCF)cc12)c1ccc(C(F)(F)F)cc1 (stereo not shown) [Compound 86, 2-N-(2-fluoroethyl)-2-N-methyl-4-N-{4-methyl-2-[4-(trifluoromethyl)phenyl]pentyl}pyrazolo[1,5-a]pyridine-2,4-dicarboxamide]
O=C(O)CC(c1ccccc1)c1cc2c(C(=O)NCC34CC5CC(CC(C5)C3)C4)cccn2n1 (stereo not shown) [Compound 106, 3-{4-[(adamantan-1-ylmethyl)carbamoyl]pyrazolo[1,5-a]pyridin-2-yl}-3-phenylpropanoic acid]
CC(C)CC(CNC(=O)c1cccn2nc(C(=O)N3CCOC(C)(C)C3)cc12)c1ccc(C(F)(F)F)cc1 (stereo not shown) [Compound 101, 2-[(2,2-dimethylmorpholin-4-yl)carbonyl]-N-{4-methyl-2-[4-(trifluoromethyl)phenyl]pentyl}pyrazolo[1,5-a]pyridine-4-carboxamide]
CN(CCF)C(=O)c1cc2c(C(=O)NCC34CC5CC(CC(C5)C3)C4)cccn2n1 [Compound 74, 4-N-(adamantan-1-ylmethyl)-2-N-(2-fluoroethyl)-2-N-methylpyrazolo[1,5-a]pyridine-2,4-dicarboxamide]
O=C(NCC12CC3CC(CC(C3)C1)C2)c1cccn2nc(C(Cc3ccccc3)C(=O)O)cc12 (stereo not shown) [Compound 103, 2-{4-[(adamantan-1-ylmethyl)carbamoyl]pyrazolo[1,5-a]pyridin-2-yl}-3-phenylpropanoic acid]
N[C@@H]1CCN(C(=O)c2cc3c(NC(=O)CC45CC6CC(CC(C6)C4)C5)cccn3n2)C1 [Compound 99, 2-adamantan-1-yl-N-(2-{[(3R)-3-aminopyrrolidin-1-yl]carbonyl}pyrazolo [1,5-a]pyridin-4-yl)acetamide]
CC(C)CC(CNC(=O)c1cccn2nc(C(=O)N3CC[C@@H](N)C3)cc12)c1ccc(C(F)(F)F)cc1 (stereo partly drawn) [Compound 80, 2-{[(3R)-3-aminopyrrolidin-1-yl]carbonyl}-N-{4-methyl-2-[4-(trifluoromethyl)phenyl]pentyl}pyrazolo[1,5-a]pyridine-4-carboxamide]
CN(Cc1cncn1C)C(=O)c1cc2c(C(=O)NCC34CC5CC(CC(C5)C3)C4)cccn2n1 [Compound 26, 4-N-(adamantan-1-ylmethyl)-2-N-methyl-2-N-[(1-methyl-1H-imidazol-5-yl)methyl]pyrazolo[1,5-a]pyridine-2,4-dicarboxamide]
CN(Cc1ccncc1)C(=O)c1cc2c(C(=O)NCC34CC5CC(CC(C5)C3)C4)cccn2n1 [Compound 33, 4-N-(adamantan-1-ylmethyl)-2-N-methyl-2-N-(pyridin-4-ylmethyl)pyrazolo[1,5-a]pyridine-2,4-dicarboxamide]
CC(C)CC(CNC(=O)c1cccn2nc(C(=O)N3CCOCC3)cc12)c1ccc(Cl)cc1 (stereo not shown) [Compound 91, N-[2-(4-chlorophenyl)-4-methylpentyl]-2-(morpholin-4-ylcarbonyl)pyrazolo [1,5-a]pyridine-4-carboxamide]
O=C(NCC12CC3CC(CC(C3)C1)C2)c1cccn2nc(CC(=O)N3CCOCC3)cc12 [Compound 25, N-(adamantan-1-ylmethyl)-2-(2-morpholin-4-yl-2-oxoethyl)pyrazolo[1,5-a]pyridine-4-carboxamide]
CC(C)CC(CNC(=O)c1cccn2nc(C(=O)N3[C@H](C)COC[C@@H]3C)cc12)c1ccc(C(F)(F)F)cc1 (single isomer, unassigned) [Compound 102]
CN(Cc1ccc(F)cc1)C(=O)c1cc2c(C(=O)NCC34CC5CC(CC(C5)C3)C4)cccn2n1 [Compound 67, 4-N-(adamantan-1-ylmethyl)-2-N-(4-fluorobenzyl)-2-N-methylpyrazolo[1,5-a]pyridine-2,4-dicarboxamide]
O=C(NCC1(c2ccc(C(F)(F)F)cc2)CCCCC1)c1cccn2nc(C(=O)N3CCOCC3)cc12 [Compound 94, 2-(morpholin-4-ylcarbonyl)-N-({1-[4-(trifluoromethyl)phenyl]cyclohexyl}methyl) pyrazolo[1,5-a]pyridine-4-carboxamide]
CC(C)CC(CNC(=O)c1cccn2nc(C(=O)N3CCn4cncc4C3)cc12)c1ccc(C(F)(F)F)cc1 (stereo not shown) [Compound 88, 2-(5,6-dihydroimidazo[1,5-a]pyrazin-7(8H)-ylcarbonyl)-N-{4-methyl-2-[4-(trifluoromethyl)phenyl]pentyl}pyrazolo[1,5-a]pyridine-4-carboxamide]
Cc1nc2c(c(=O)[nH]1)CN(C(=O)c1cc3c(C(=O)NCC45CC6CC(CC(C6)C4)C5)cccn3n1)CC2 [Compound 30, N-(adamantan-1-ylmethyl)-2-[(2-methyl-4-oxo-3,5,7,8-tetrahydropyrido[4,3-d]pyrimidin-6(4H)-yl)carbonyl]pyrazolo [1,5-a]pyridine-4-carboxamide]
CCN[C@@H]1CCN(C(=O)c2cc3c(C(=O)NCC45CC6CC(CC(C6)C4)C5)cccn3n2)C1 [Compound 47, N-(adamantan-1-ylmethyl)-2-{[(3R)-3-(ethylamino)pyrrolidin-1-yl]carbonyl}pyrazolo [1,5-a]pyridine-4-carboxamide]
CN(CCF)C(=O)Cc1cc2c(C(=O)NCC34CC5CC(CC(C5)C3)C4)cccn2n1 [Compound 77, N-(adamantan-1-ylmethyl)-2-{2-[(2-fluoroethyl)(methyl)amino]-2-oxoethyl}pyrazolo[1,5-a]pyridine-4-carboxamide]
CCOC(=O)CN(C)C(=O)c1cc2c(C(=O)NCC34CC5CC(CC(C5)C3)C4)cccn2n1 [Compound 23, ethyl N-({4-[(adamantan-1-ylmethyl)carbamoyl]pyrazolo[1,5-a]pyridin-2-yl}carbonyl)-N-methylglycinate]
O=C(NC1CCS(=O)(=O)C1)c1cc2c(C(=O)NCC34CC5CC(CC(C5)C3)C4)cccn2n1 (stereo not shown) [Compound 82, 4-N-(adamantan-1-ylmethyl)-2-N-(1,1-dioxidotetrahydrothio-phen-3-yl)pyrazolo[1,5-a]pyridine-2,4-dicarboxamide]
CC(C)CC(CNC(=O)c1cccn2nc(C(=O)N3C[C@@H](C)O[C@@H](C)C3)cc12)c1ccc(C(F)(F)F)cc1 (single isomer, unassigned) [Compound 100]
